Consider two molecules from US20110269811A1, “INHIBITORS OF SEMICARBAZIDE-SENSITIVE AMINE OXIDASE (SSAO) AND VAP-1 MEDIATED ADHESION USEFUL FOR TREATMENT AND PREVENTION OF DISEASES” (priority 2006, published 2011).

In one assay the target is T1, V1a (h) (Homo sapiens, UniProt P37288).
T1 construct: expressed in transfected cells; host or cells: CHO cells
Kind of assay: Receptor binding screen, [^3H]AVP. Particulars: 10 uM Concentration of Compound I-1-Z; read-out: Mean Value, percent inhibition of control specific binding: V1a (h).

The target of a further assay is T2, CGRP (h) (Homo sapiens, UniProt O60894+Q16602).
T2 construct: expressed in transfected cells; host or cells: CHO cells
T2 sequence (Q16602 23-461): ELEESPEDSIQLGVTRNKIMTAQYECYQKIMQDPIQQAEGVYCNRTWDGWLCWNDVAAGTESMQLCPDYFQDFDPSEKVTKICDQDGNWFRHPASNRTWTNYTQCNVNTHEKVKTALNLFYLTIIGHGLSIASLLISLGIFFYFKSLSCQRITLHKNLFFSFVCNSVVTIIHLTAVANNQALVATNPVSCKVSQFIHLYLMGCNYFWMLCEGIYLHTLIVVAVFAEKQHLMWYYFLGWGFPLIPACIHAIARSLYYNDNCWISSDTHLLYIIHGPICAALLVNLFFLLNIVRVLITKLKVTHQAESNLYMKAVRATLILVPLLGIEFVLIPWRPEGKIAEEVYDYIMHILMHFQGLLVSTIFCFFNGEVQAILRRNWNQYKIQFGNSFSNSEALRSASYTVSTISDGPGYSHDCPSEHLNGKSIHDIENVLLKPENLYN
T2 sequence (O60894 27-148): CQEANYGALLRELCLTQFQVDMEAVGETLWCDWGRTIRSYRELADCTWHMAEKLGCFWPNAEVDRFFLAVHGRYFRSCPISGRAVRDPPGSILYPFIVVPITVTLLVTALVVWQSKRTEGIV
Description: Receptor binding screen, [^125I]hCGRPα. The following applies: 10 uM Concentration of Compound I-1-Z; read-out: Mean Value, percent inhibition of control specific binding: CGRP (h).

A further assay deals with T3, 5-HT1A (h) (Homo sapiens, UniProt P08908).
T3 construct: expressed in transfected cells; host or cells: HEK-293 cells
T3 sequence (P08908 whole entry): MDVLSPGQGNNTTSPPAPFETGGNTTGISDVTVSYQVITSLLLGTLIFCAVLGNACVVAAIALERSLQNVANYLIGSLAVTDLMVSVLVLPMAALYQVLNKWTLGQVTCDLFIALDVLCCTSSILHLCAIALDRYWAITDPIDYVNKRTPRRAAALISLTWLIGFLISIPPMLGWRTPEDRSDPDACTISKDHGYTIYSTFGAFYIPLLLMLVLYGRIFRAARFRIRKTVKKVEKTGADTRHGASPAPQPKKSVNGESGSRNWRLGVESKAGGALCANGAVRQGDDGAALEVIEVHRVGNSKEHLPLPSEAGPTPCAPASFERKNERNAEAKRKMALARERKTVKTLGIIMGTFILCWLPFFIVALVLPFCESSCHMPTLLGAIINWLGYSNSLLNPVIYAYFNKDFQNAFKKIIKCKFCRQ
Kind of assay: Receptor binding screen, [^3H]8-OH-DPAT. The following applies: 10 uM Concentration of Compound I-1-Z; read-out: Mean Value, percent inhibition of control specific binding: 5-HT1A (h).

For the next assay, the target named is T4, NK2 (h) (Homo sapiens, UniProt P21452).
T4 construct: expressed in transfected cells; host or cells: CHO cells
T4 sequence (P21452 whole entry): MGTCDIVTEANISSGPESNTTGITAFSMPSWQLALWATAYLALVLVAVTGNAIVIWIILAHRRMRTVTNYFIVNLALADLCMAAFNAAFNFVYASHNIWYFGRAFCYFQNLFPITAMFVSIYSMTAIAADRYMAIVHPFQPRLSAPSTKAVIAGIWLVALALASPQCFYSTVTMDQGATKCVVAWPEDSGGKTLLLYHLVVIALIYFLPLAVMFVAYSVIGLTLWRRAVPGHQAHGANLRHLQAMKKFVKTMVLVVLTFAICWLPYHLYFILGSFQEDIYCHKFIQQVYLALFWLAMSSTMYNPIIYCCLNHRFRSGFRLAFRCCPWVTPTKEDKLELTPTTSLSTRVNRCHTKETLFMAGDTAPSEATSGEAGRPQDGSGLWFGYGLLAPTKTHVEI
Kind of assay: Receptor binding screen, [^125I]NKA. Particulars: 10 uM Concentration of Compound I-1-Z; read-out: Mean Value, percent inhibition of control specific binding: NK2 (h).

For another assay, the target named is T5, NK1 (h) (Homo sapiens, UniProt P25103).
T5 construct: U-373MG cells; endogenous in cells; host or cells: U-373MG cells
Kind of assay: Receptor binding screen, [^125I]BH-SP, U-373MG cells. Particulars: 10 uM Concentration of Compound I-1-Z; read-out: Mean Value, percent inhibition of control specific binding: NK1 (h).

The next assay addresses T6, 5-HT transporter (h) (Homo sapiens, UniProt P31645).
T6 construct: expressed in transfected cells; host or cells: CHO cells
Description: Receptor binding screen, [^3H]imipramine. Particulars: 10 uM Concentration of Compound I-1-Z; read-out: Mean Value, percent inhibition of control specific binding: 5-HT transporter (h).

The target of the next assay is T7, VIP1 (h) (VPAC1) (Homo sapiens, UniProt P32241).
T7 construct: expressed in transfected cells; host or cells: CHO cells
T7 sequence (P32241 31-457): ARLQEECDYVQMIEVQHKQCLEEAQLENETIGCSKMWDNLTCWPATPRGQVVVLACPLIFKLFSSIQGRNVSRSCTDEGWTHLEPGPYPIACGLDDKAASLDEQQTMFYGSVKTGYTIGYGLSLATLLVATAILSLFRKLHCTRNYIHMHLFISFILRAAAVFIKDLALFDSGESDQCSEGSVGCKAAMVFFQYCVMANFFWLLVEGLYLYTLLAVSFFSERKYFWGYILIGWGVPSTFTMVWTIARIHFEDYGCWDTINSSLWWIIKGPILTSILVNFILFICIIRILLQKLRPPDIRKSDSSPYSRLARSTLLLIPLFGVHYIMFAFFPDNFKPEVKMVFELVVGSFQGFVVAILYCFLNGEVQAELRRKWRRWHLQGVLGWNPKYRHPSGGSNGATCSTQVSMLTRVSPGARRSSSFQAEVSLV
Description: Receptor binding screen, [^125I]VIP. Particulars: 10 uM Concentration of Compound I-1-Z; read-out: Mean Value, percent inhibition of control specific binding: VIP1 (h) (VPAC1).

The target of another assay is T8, 5-HT7 (h) (Homo sapiens, UniProt P34969).
T8 construct: expressed in transfected cells; host or cells: CHO cells
T8 sequence (P34969 whole entry): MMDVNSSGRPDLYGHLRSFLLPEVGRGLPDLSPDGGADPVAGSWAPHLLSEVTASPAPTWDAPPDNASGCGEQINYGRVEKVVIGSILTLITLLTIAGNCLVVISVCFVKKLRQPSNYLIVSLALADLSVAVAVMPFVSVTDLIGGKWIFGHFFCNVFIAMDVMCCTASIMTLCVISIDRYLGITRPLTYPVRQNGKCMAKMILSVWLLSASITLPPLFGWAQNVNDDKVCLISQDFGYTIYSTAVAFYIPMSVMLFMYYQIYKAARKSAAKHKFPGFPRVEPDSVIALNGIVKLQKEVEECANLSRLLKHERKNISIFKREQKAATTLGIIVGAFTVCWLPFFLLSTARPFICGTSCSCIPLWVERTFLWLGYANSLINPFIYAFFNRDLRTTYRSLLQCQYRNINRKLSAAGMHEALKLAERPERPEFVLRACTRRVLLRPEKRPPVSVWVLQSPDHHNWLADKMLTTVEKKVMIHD
Kind of assay: Receptor binding screen, [^3H]LSD. The following applies: 10 uM Concentration of Compound I-1-Z; read-out: Mean Value, percent inhibition of control specific binding: 5-HT7 (h).

The target of the next assay is T9, A2A (h) (Homo sapiens, UniProt P29274).
T9 construct: expressed in transfected cells; host or cells: HEK-293 cells
T9 sequence (P29274 whole entry): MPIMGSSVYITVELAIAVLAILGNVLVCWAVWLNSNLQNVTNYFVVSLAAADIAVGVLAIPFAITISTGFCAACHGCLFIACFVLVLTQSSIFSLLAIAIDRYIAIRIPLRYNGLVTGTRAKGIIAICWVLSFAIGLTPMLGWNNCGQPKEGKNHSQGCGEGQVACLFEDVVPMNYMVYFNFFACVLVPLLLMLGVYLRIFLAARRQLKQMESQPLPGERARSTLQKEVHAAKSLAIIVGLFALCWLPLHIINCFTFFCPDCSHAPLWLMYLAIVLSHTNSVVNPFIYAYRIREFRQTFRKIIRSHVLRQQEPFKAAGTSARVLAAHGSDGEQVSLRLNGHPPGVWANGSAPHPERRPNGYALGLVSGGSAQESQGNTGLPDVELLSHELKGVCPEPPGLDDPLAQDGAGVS
Description: Receptor binding screen, [^3H]CGS 21680. Particulars: 10 uM Concentration of Compound I-1-Z; read-out: Mean Value, percent inhibition of control specific binding: A2A (h).

Another assay addresses T10, NE transporter (h) (Homo sapiens, UniProt P23975).
T10 construct: expressed in transfected cells; host or cells: CHO cells
Description: Receptor binding screen, [^3H]nisoxetine. The following applies: 10 uM Concentration of Compound I-1-Z; read-out: Mean Value, percent inhibition of control specific binding: NE transporter (h).

In a further assay the target is T11, A1 (h) (Homo sapiens, UniProt P30542).
T11 construct: expressed in transfected cells; host or cells: CHO cells
Description: Receptor binding screen, [^3H]DPCPX. Particulars: 10 uM Concentration of Compound I-1-Z; read-out: Mean Value, percent inhibition of control specific binding: A1 (h).

Another assay concerns the target T12, D4.4 (h) (Homo sapiens, UniProt P21917).
T12 construct: expressed in transfected cells; host or cells: CHO cells
Description: Receptor binding screen, [^3H]spiperone. The following applies: 10 uM Concentration of Compound I-1-Z; read-out: Mean Value, percent inhibition of control specific binding: D4.4 (h).

For the next assay, the target named is T13, 5-HT6 (h) (Homo sapiens, UniProt P50406).
T13 construct: expressed in transfected cells; host or cells: CHO cells
Kind of assay: Receptor binding screen, [^3H]LSD. Particulars: 10 uM Concentration of Compound I-1-Z; read-out: Mean Value, percent inhibition of control specific binding: 5-HT6 (h).

The test system of another assay is α2 (non-selective). Kind of assay: Receptor binding screen, [^3H]RX 821002. Also noted: species or system rat. Particulars: 10 uM Concentration of Compound I-1-Z. How it is done: For Table 4 below, the specific ligand binding to the receptors is defined as the difference between the total binding and the nonspecific binding determined in the presence of an excess of unlabelled ligand. The results are expressed as a percent inhibition of control specific binding obtained in the presence of Compound I-1-Z. The IC50 values (concentration causing a half-maximal inhibition of control specific binding) and Hill coefficients (nH) were determined by non-linear regression analysis of the competition curves using Hill equation curve fitting. The inhibition constants (Ki) were calculated from the Cheng Prusoff equation (Ki=IC50/(1+(L/KD)), where L=concentration of radioligand in the assay, and KD=affinity of the radioligand for the receptor). In each experiment, the respective reference compound was tested concurrently with Compound I-1-Z in order to assess the assay suitability.

The next assay addresses T14, CB1 (h) (Homo sapiens, UniProt P21554).
T14 construct: expressed in transfected cells; host or cells: CHO cells
Description: Receptor binding screen, [^3H]CP 55940. Particulars: 10 uM Concentration of Compound I-1-Z; read-out: Mean Value, percent inhibition of control specific binding: CB1 (h).

A further assay deals with T15, 5-HT3 (h) (Homo sapiens, UniProt P46098).
T15 construct: expressed in transfected cells; host or cells: CHO cells
Description: Receptor binding screen, [^3H]BRL 43694. The following applies: 10 uM Concentration of Compound I-1-Z; read-out: Mean Value, percent inhibition of control specific binding: 5-HT3 (h).

The subject of assay [1] is oxazolone-induced colitis. Kind of assay: Oxazolone-induced colitis. The assay is classed as in vivo, SJL/J male mice. The following applies: 30 mg/kg intraperitoneally, day 0 until day 12; FIG. 2A, 2B. The procedure:
Oxazolone-induced colitis is a TH2-mediated process that closely resembles ulcerative colitis and is responsive to anti-IL4 therapy ((Strober W. et al (2002) Annu. Rev. Immunol. 20: 495, Boirivant M. et al. (1998) J. Ex. Med. 188: 1929). Oxazolone colitis is induced as described (Fuss I. J. et al. (2002) J. Immunol. 168: 900). Briefly, mice are pre-sensitized by epicutaneous application of 1% oxazolone (4-ethoxymethylene-2-phenyl-2oxazolin-5-one, Sigma) in 100% EtOH (200 μL) on day 0, followed by intrarectal administration of 0.75% oxazolone in 50% EtOH (100 μL) to anesthetized SJL/J male mice on day 5 through a 3.5 F catheter inserted 4 cm proximal to the anal verge. Mice are divided in two treatment groups and injected i.p. twice a day with either PBS or a compound of the invention. Injections are initiated at day 0 and are continued through day 12. Disease progression is evaluated by monitoring body weight and survival.
A study was carried out using the protocol described above for oxazolone-induced colitis. […] Disease progression was evaluated until day 15 (10 days after intrarectal administration) by monitoring survival rates and body weight. When following the above-described protocol, disease severity as measured by body weight drop was maximal at day 11 (6 days after intrarectal challenge), although animals started dying on day 9.

T12 sequence (P21917 whole entry): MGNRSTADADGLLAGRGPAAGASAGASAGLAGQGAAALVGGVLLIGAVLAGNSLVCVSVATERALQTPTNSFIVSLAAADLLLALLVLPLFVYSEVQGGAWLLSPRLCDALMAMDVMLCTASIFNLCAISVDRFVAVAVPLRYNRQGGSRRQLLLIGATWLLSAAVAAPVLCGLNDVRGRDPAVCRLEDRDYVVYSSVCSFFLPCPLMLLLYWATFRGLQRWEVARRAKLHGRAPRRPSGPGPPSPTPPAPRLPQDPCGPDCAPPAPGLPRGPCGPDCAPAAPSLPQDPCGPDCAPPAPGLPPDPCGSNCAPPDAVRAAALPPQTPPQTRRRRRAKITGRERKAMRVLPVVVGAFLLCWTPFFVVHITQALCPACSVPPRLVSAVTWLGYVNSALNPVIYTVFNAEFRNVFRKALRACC
T10 sequence (P23975 whole entry): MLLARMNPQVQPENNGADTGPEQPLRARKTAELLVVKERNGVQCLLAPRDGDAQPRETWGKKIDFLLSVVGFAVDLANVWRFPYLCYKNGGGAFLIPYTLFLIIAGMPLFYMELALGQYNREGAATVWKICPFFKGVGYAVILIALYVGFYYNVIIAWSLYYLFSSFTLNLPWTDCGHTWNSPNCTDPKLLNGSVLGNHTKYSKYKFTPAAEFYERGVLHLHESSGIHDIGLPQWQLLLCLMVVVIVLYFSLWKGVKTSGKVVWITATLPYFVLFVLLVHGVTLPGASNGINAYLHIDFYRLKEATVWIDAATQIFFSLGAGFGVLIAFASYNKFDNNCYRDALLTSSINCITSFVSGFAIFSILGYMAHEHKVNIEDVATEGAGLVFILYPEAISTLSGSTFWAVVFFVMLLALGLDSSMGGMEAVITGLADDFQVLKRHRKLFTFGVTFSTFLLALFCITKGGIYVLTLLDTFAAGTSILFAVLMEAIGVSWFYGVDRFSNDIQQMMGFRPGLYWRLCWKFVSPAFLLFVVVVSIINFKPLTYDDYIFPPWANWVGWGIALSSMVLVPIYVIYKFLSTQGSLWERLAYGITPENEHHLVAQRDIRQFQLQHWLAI
T14 sequence (P21554 whole entry): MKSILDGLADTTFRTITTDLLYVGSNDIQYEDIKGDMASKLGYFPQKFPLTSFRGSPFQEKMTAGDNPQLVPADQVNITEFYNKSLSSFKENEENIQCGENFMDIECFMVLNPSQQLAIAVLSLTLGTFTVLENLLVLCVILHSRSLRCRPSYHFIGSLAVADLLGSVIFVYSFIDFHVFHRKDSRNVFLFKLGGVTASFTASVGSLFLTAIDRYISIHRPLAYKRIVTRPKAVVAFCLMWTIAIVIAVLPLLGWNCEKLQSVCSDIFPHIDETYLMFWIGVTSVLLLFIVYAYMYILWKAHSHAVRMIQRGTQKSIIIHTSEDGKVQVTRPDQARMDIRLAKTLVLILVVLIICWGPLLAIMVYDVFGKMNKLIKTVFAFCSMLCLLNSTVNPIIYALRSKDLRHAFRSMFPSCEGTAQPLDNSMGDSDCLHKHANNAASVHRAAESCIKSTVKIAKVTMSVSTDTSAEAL
T1 sequence (P37288 whole entry): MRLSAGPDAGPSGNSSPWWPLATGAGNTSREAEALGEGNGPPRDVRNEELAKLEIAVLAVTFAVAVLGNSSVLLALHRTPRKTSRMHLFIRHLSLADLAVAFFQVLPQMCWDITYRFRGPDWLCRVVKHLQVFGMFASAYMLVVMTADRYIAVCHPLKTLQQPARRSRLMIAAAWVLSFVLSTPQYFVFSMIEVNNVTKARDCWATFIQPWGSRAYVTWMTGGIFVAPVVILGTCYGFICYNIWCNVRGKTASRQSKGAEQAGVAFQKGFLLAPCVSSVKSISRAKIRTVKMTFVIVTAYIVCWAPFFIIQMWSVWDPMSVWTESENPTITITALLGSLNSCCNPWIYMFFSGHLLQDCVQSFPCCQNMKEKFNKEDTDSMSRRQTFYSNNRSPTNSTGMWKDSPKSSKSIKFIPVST

Consider `COc1ccc(C/C(=C/F)CN)cc1.Cl` [Compound I-1-Z, (Z)-3-Fluoro-2-(4-methoxybenzyl)-allylamine hydrochloride], for which the inhibition at 10 µM at V1a (h) is 9%; at CGRP (h), -7%; at 5-HT1A (h), 34%; at NK2 (h), 3%; at NK1 (h), -6%; at 5-HT transporter (h), 47%. For the same molecule, the inhibition at 10 µM on VIP1 (h) (VPAC1) was -13%; at 5-HT7 (h), 13%; at A2A (h) it was 13%; on NE transporter (h), 68%; on A1 (h), -3%; at D4.4 (h), 2%. Besides, the inhibition at 10 µM at 5-HT6 (h) was found to be 1%; at CB1 (h), 14%; at 5-HT3 (h), 4%. The “Mean Value, percent inhibition of control specific binding: α2 (non-selective)” value with α2 (non-selective) is on record as 23%.
With `NC/C(F)=C\Cc1cc(F)cc(C(F)(F)F)c1` [II-1-E, (E)-2-Fluoro-4-(3-fluoro-5-trifluoromethylphenyl)-but-2-enylamine], the “survival rates and body weight loss compared with the vehicle group” value in assay [1] was “improved survival rates and body weight loss”.

What is called inhibition is the drop in the measured response relative to a control, in per cent.
